Laboratory results taken from patent US9617225B2 (VIROSTATICS SRL, priority 2012, dated 2017).
Structures can show the parent of a compound that is named as a salt. Where two headings read alike, the source gives them in different places.

Molecular target: human CDK9/CyclinT kinase complex (Homo sapiens (Human), UniProt P50750)
Test: In Vitro CDK9/CyclinT Assay (IMAP fluorescent polarization)
Format: biochemical
Experimental: In Vitro CDK9/CyclinT Assay
The activity of the compounds described in the present invention can be determined by measuring the phosphorylation of a fluorescently-labeled peptide by human CDK9/CyclinT kinase complex by fluorescent polarization using a commercially available IMAP Screening Express Assay Kit (Molecular devices).
Test compounds were diluted in 100% DMSO to 5 mM stock concentration, then further dilutions were made in H2O or 100% DMSO to desirable concentrations. Each reaction consisted of 5 nM enzyme: CDK9/CyclinT (Proqinase cat#0371-0345-1), 400 nM TAMRA-Rbtide (synthetic 15-mer peptide derived from human retinoblastoma tumor suppressor protein labeled with TAMRA dye, Genecust Europe), 12 μM ATP (=Kmapp, Sigma-Aldrich) and kinase buffer: 20 mM MOPS pH 7 (Sigma-Aldrich), 1 mM DTT (Sigma-Aldrich), 10 mM MgCl2 (Sigma-Aldrich), 0.01% Tween 20 (Sigma-Aldrich).
For each reaction, 4 or 6 μl containing TAMRA-Rbtide, ATP and kianse buffer were combined with 2 μl diluted compound in H2O or 0.028 μl compound in 100% DMSO. The kinase reaction was started by the addition of 2 μl diluted enzyme. The reaction was allowed to run for 1 hour at room temperature. The reaction was stopped by adding 15 μl IMAP beads (1:400 beads in progressive (100% buffer A) 1× buffer).

Sequence of human CDK9/CyclinT kinase complex (P50750 whole entry): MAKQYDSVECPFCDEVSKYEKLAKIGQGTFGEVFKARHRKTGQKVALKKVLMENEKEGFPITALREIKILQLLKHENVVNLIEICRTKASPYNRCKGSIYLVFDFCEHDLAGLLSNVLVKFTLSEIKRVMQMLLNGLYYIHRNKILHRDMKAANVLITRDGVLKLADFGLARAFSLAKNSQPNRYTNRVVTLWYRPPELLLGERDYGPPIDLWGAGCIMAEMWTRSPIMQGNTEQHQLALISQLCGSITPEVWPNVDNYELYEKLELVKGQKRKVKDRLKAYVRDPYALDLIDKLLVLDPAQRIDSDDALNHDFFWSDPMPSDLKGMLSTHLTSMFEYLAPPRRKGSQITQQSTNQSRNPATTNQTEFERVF
Sequence of human CDK9/CyclinT kinase complex (O60563 whole entry partner): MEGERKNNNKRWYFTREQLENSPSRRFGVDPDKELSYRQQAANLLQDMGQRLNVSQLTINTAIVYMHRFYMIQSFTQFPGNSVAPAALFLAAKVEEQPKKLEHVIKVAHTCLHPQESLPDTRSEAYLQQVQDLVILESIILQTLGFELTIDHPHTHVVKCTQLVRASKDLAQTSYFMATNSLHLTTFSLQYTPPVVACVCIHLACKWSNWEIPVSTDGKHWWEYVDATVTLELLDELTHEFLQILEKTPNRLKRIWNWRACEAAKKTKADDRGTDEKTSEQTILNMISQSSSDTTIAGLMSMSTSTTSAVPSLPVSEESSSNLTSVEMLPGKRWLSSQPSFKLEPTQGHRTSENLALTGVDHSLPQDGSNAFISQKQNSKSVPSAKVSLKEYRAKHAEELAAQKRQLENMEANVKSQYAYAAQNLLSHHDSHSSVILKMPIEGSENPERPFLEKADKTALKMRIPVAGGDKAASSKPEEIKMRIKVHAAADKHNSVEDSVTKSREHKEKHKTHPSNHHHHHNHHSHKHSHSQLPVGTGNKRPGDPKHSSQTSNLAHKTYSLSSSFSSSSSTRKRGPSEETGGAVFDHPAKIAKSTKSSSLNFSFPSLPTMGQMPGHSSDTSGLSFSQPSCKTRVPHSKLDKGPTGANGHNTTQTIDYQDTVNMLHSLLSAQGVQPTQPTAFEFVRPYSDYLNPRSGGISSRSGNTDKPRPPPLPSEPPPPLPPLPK

SMILES | IC50 (Table 1) | IC50
COc1ccc(Nc2cc(-c3ccccc3OC)ncn2)cc1C(=O)NCCCN1CCN(C)CC1 [Example 47, 2-Methoxy-5-[6-(2-methoxy-phenyl)-pyrimidin-4-ylamino]-N-[3-(4-methyl-piperazin-1-yl)-propyl]-benzamide] |  | < 1000 nM
COc1ccc(Nc2cc(-c3ccccc3OC)ncn2)cc1C(=O)NCCO [Example 48, N-(2-Hydroxy-ethyl)-2-methoxy-5-[6-(2-methoxy-phenyl)-pyrimidin-4-ylamino]-benzamide] | < 1000 nM | 
COc1ccc(Nc2cc(-c3ccccc3OC)ncn2)cc1NC(C)=O [Example 50, N-{2-Methoxy-5-[6-(2-methoxy-phenyl)-pyrimidin-4-ylamino]-phenyl}-acetamide] |  | < 1000 nM
COC(=O)Nc1cc(Nc2cc(-c3ccccc3OC)ncn2)ccc1OC [Example 51, {2-Methoxy-5-[6-(2-methoxy-phenyl)-pyrimidin-4-ylamino]-phenyl}-carbamic acid methyl ester] | < 1000 nM | 
CNC(=O)Nc1cc(Nc2cc(-c3ccccc3OC)ncn2)ccc1OC [Example 52, 1-{2-Methoxy-5-[6-(2-methoxy-phenyl)-pyrimidin-4-ylamino]-phenyl}-3-methyl-urea] | < 1000 nM | 
COc1ccc(Nc2cc(-c3ccccc3OC)ncn2)cc1NC(=O)C(C)(C)C [Example 53, N-{2-Methoxy-5-[6-(2-methoxy-phenyl)-pyrimidin-4-ylamino]-phenyl}-2,2-dimethyl-propionamide] | < 1000 nM | 
COc1ccc(Nc2cc(-c3ccccc3OC)ncn2)cc1Nc1nc2ccccc2[nH]1 [Example 54, N^3-(1H-Benzoimidazol-2-yl)-4-methoxy-N^1-[6-(2-methoxy-phenyl)-pyrimidin-4-yl]-benzene-1,3-diamine] | < 10000 nM | 
COc1ccc(Nc2cc(-c3ccccc3OC)ncn2)cc1NC=O [Example 55, N-{2-Methoxy-5-[6-(2-methoxy-phenyl)-pyrimidin-4-ylamino]-phenyl}-formamide] | < 100 nM | 
COc1ccc(Nc2cc(-c3ccccc3OC)ncn2)cc1NC(N)=O [Example 56, {2-Methoxy-5-[6-(2-methoxy-phenyl)-pyrimidin-4-ylamino]-phenyl}-urea] | < 1000 nM | 
COc1cc(Nc2cc(-c3ccccc3OC)ncn2)ccc1NS(C)(=O)=O [Example 60, N-{2-Methoxy-4-[6-(2-methoxy-phenyl)-pyrimidin-4-ylamino]-phenyl}-methanesulfonamide] | < 1000 nM | 
COc1ccc(-c2cc(Nc3ccc(OC)c([N+](=O)[O-])c3)ncn2)cc1 [Example 65, (4-Methoxy-3-nitro-phenyl)-[6-(4-methoxy-phenyl)-pyrimidin-4-yl]-amine] |  | > 10000 nM
COc1ccc(Nc2cc(-c3ccccc3Oc3ccccc3)ncn2)cc1[N+](=O)[O-] [Example 76, (4-Methoxy-3-nitro-phenyl)-[6-(2-phenoxy-phenyl)-pyrimidin-4-yl]-amine] | > 10000 nM | 
COc1ccc(Nc2cc(-c3cc(F)c(F)cc3OC)ncn2)cc1NC=O [Example 84, N-{5-[6-(4,5-Difluoro-2-methoxy-phenyl)-pyrimidin-4-ylamino]-2-methoxy-phenyl}-formamide] | < 1000 nM | 
COc1ccc(F)cc1-c1cc(Nc2cc(N)c(OC)c(F)c2)ncn1 [Example 91, 5-Fluoro-N^1-[6-(5-fluoro-2-methoxy-phenyl)-pyrimidin-4-yl]-4-methoxy-benzene-1,3-diamine] | < 1000 nM | 
COc1ccc(Nc2cc(-c3ccccc3OC)ncn2)cc1OC(C)=O [Example 93, Acetic acid 2-methoxy-5-[6-(2-methoxy-phenyl)-pyrimidin-4-ylamino]-phenyl ester] |  | < 1000 nM
COc1ccc(Nc2cc(-c3ccccc3OC)ncn2)cc1OC(=O)N(C)C [Example 94, Dimethyl-carbamic acid 2-methoxy-5-[6-(2-methoxy-phenyl)-pyrimidin-4-ylamino]-phenyl ester] | < 1000 nM | 
COC(=O)Oc1cc(Nc2cc(-c3ccccc3OC)ncn2)ccc1OC [Example 95, Carbonic acid 2-methoxy-5-[6-(2-methoxy-phenyl)-pyrimidin-4-ylamino]-phenyl ester methyl ester] | < 1000 nM | 
COc1ccccc1-c1cc(Nc2ccc(Oc3ccccc3)c([N+](=O)[O-])c2)ncn1 [Example 96, [6-(2-Methoxy-phenyl)-pyrimidin-4-yl]-(3-nitro-4-phenoxy-phenyl)-amine] |  | > 10000 nM
COc1ccccc1-c1cc(Nc2ccc(Oc3ccccc3)c(N)c2)ncn1 [Example 97, N^1-[6-(2-Methoxy-phenyl)-pyrimidin-4-yl]-4-phenoxy-benzene-1,3-diamine] | < 10000 nM | 
COC(=O)N(C)c1cc(Nc2cc(-c3ccccc3OC)ncn2)ccc1OC [Example 98, {2-Methoxy-5-[6-(2-methoxy-phenyl)-pyrimidin-4-ylamino]-phenyl}-methyl-carbamic acid methyl ester hydrochloride] |  | < 1000 nM
CNc1cc(Nc2cc(-c3ccccc3OC)ncn2)ccc1OC [Example 99, 4-Methoxy-N^1-[6-(2-methoxy-phenyl)-pyrimidin-4-yl]-N^3-methyl-benzene-1,3-diamine] | < 1000 nM | 
COc1cc(F)ccc1-c1cc(Nc2ccc(F)c([N+](=O)[O-])c2)ncn1 [Example 102, [6-(4-Fluoro-2-methoxy-phenyl)-pyrimidin-4-yl]-(4-fluoro-3-nitro-phenyl)-amine] |  | < 10000 nM
COc1ccccc1-c1cc(Nc2ccc(N(C)C)c(O)c2)ncn1 [Example 108, 2-Dimethylamino-5-[6-(2-methoxy-phenyl)-pyrimidin-4-ylamino]-phenol] |  | < 1000 nM
COc1ccccc1-c1cc(Nc2ccc(N(C)C)c(C(N)=O)c2)ncn1 [Example 109, 2-Dimethylamino-5-[6-(2-methoxy-phenyl)-pyrimidin-4-ylamino]-benzamide] |  | < 1000 nM
CCOc1ccc(Nc2cc(-c3ccccc3OC)ncn2)cc1O [Example 110, 2-Ethoxy-5-[6-(2-methoxy-phenyl)-pyrimidin-4-ylamino]-phenol] | < 1000 nM | 

The next lines start with results.

IC50 (Table 1) | SMILES | IC50
< 10000 nM | COc1ccccc1-c1cc(Nc2ccc([N+](=O)[O-])c(F)c2)ncn1 [Example 57, (3-Fluoro-4-nitro-phenyl)-[6-(2-methoxy-phenyl)-pyrimidin-4-yl]-amine] | 
< 10000 nM | COc1ccccc1-c1cc(Nc2ccc([N+](=O)[O-])c(OC)c2)ncn1 [Example 58, (3-Methoxy-4-nitro-phenyl)-[6-(2-methoxy-phenyl)-pyrimidin-4-yl]-amine] | 
< 1000 nM | CCOc1ccccc1-c1cc(Nc2ccc(OC)c([N+](=O)[O-])c2)ncn1 [Example 61, [6-(2-Ethoxy-phenyl)-pyrimidin-4-yl]-(4-methoxy-3-nitro-phenyl)-amine] | 
< 1000 nM | COc1cc(F)ccc1-c1cc(Nc2ccc(OC)c([N+](=O)[O-])c2)ncn1 [Example 63, [6-(4-Fluoro-2-methoxy-phenyl)-pyrimidin-4-yl]-(4-methoxy-3-nitro-phenyl)-amine] | 
< 1000 nM | CCOc1cc(F)ccc1-c1cc(Nc2ccc(OC)c([N+](=O)[O-])c2)ncn1 [Example 72, [6-(2-Ethoxy-4-fluoro-phenyl)-pyrimidin-4-yl]-(4-methoxy-3-nitro-phenyl)-amine] | 
< 10000 nM | COc1ccc(F)cc1-c1cc(Nc2ccc(OC)c([N+](=O)[O-])c2)ncn1 [Example 74, [6-(5-Fluoro-2-methoxy-phenyl)-pyrimidin-4-yl]-(4-methoxy-3-nitro-phenyl)-amine] | 
< 10000 nM | COc1ccc(Nc2cc(-c3ccccc3OC(C)C)ncn2)cc1[N+](=O)[O-] [Example 78, [6-(2-Isopropoxy-phenyl)-pyrimidin-4-yl]-(4-methoxy-3-nitro-phenyl)-amine] | 
> 10000 nM | COc1ccc(Nc2cc(-c3cccc(F)c3OC)ncn2)cc1[N+](=O)[O-] [Example 80, [6-(3-Fluoro-2-methoxy-phenyl)-pyrimidin-4-yl]-(4-methoxy-3-nitro-phenyl)-amine] | 
> 10000 nM | COc1cc(F)c(F)cc1-c1cc(Nc2ccc(OC)c([N+](=O)[O-])c2)ncn1 [Example 82, [6-(4,5-Difluoro-2-methoxy-phenyl)-pyrimidin-4-yl]-(4-methoxy-3-nitro-phenyl)-amine] | 
< 1000 nM | COc1ccc(Nc2cc(-c3ccc(F)cc3OC(C)C)ncn2)cc1[N+](=O)[O-] [Example 85, [6-(4-Fluoro-2-isopropoxy-phenyl)-pyrimidin-4-yl]-(4-methoxy-3-nitro-phenyl)-amine] | 
< 10000 nM | COc1ccccc1-c1cc(Nc2cc(F)c(OC)c([N+](=O)[O-])c2)ncn1 [Example 87, (3-Fluoro-4-methoxy-5-nitro-phenyl)-[6-(2-methoxy-phenyl)-pyrimidin-4-yl]-amine] | 
< 10000 nM | CCOc1ccc(Nc2cc(-c3ccccc3OC)ncn2)cc1[N+](=O)[O-] [Example 100, (4-Ethoxy-3-nitro-phenyl)-[6-(2-methoxy-phenyl)-pyrimidin-4-yl]-amine] | 
< 1000 nM | CCOc1ccc(Nc2cc(-c3ccc(F)cc3OC)ncn2)cc1[N+](=O)[O-] [Example 103, (4-Ethoxy-3-nitro-phenyl)-[6-(4-fluoro-2-methoxy-phenyl)-pyrimidin-4-yl]-amine] | 
< 1000 nM | COc1cc(F)ccc1-c1cc(Nc2ccc(F)c(N)c2)ncn1 [Example 104, 4-Fluoro-N^1-[6-(4-fluoro-2-methoxy-phenyl)-pyrimidin-4-yl]-benzene-1,3-diamine] | 
